Test results from patent publication US20240287138A1, “CYCLIC PEPTIDES FOR INHIBITING TNF RECEPTOR 1 ACTIVITY” (Merck Sharp & Dohme LLC, priority 2023, published 2024).
Numbered stars: 1 amine (or outer) side, 2 acyl side, 3 side chain; on linkers, the order of the positions; unused ones are H or OH. Bridge positions count the residues as written; N and C are the ends. Square brackets hold non-standard residues; d marks the D form. Peptide text beside a SMILES is read from it. * marks the point of attachment. Trp(βS-Me,7-OMe) = COc1cccc2c([C@H](C)[C@H](N)C(=O)O)c[nH]c12; X21 = COc1cccc2c([C@H](C)[C@H](N[*:1])C(=O)[*:2])c(C)[nH]c12; X24 = O=C(O)c1ccc([C@@H](O)[C@H](N[*:1])C(=O)[*:2])cc1; X28 = NC(=O)c1ccc([C@H](O)[C@H](N[*:1])C(=O)[*:2])cc1; Phe(4-SO2NH2) = N[C@@H](Cc1ccc(S(N)(=O)=O)cc1)C(=O)O; Trp(7-CN) = N#Cc1cccc2c(C[C@H](N)C(=O)O)c[nH]c12; Trp(7-Cl) = N[C@@H](Cc1c[nH]c2c(Cl)cccc12)C(=O)O; Phe(4-CONH2) = NC(=O)c1ccc(C[C@H](N)C(=O)O)cc1; Phe(4-COOH) = N[C@@H](Cc1ccc(C(=O)O)cc1)C(=O)O; Trp(7-F) = N[C@@H](Cc1c[nH]c2c(F)cccc12)C(=O)O; Trp(7-aza) = N[C@@H](Cc1c[nH]c2ncccc12)C(=O)O; Ala(4-thiazolyl) = N[C@@H](Cc1cscn1)C(=O)O; dPro(trans-4-F) = O=C(O)[C@H]1C[C@H](F)CN1; Pip(5R-OH) = O=C(O)[C@@H]1CC[C@@H](O)CN1; X1 = O=C([C@@H]1CC[C@H](N[*:1])C1)[*:2]; 1Nal = N[C@@H](Cc1cccc2ccccc12)C(=O)O; 2Nal = N[C@@H](Cc1ccc2ccccc2c1)C(=O)O; Pip(4-aza) = O=C(O)[C@@H]1CNCCN1; hPhe = N[C@@H](CCc1ccccc1)C(=O)O; 4Pal = N[C@@H](Cc1ccncc1)C(=O)O; NMeE = CN[C@@H](CCC(=O)O)C(=O)O; dHyp = O=C(O)[C@H]1C[C@H](O)CN1; Cit = NC(=O)NCCC[C@H](N)C(=O)O; X7 = CC[C@@H](C(=O)[*:1])[*:2]; αMeS = C[C@](N)(CO)C(=O)O; Carboxymethyl = O=C(O)C*; NMeA = CN[C@@H](C)C(=O)O; Nle = CCCC[C@H](N)C(=O)O; Sar = CNCC(=O)O

Key:
[1] = target: T1, human soluble TNFR1 (sTNFR1) (Homo sapiens, UniProt P19438); experiment: Human sTNFR1-peptide displacement assay (LanthaScreen Eu TR-FRET binding assay)
T1 construct: made in house; host or cells: Sf21 (baculovirus)
T1 sequence (P19438 with tags, fused parts or gaps): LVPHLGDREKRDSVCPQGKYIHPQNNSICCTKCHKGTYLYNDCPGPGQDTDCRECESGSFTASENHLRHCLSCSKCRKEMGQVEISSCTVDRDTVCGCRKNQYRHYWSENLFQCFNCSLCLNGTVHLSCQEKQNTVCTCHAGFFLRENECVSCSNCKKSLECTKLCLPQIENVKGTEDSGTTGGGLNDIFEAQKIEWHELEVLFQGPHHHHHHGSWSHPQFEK
In short: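 Readout is the 665/615 nm TR-FRET ratio (Eu anti-His donor, streptavidin-Alexa647 acceptor), normalized to DMSO and saturating displacer, fit by Morrison-based five-parameter logistic for Kd^app. His-tagged sTNFR1 (1-211) prebound to 100 nM biotinylated peptide SEQ ID NO.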

[2] = target: T2, human TNFR1 extracellular domain (ECD) protein (Homo sapiens, UniProt P19438); experiment: SPR binding affinity to captured human TNFR1 ECD
T2 construct: HRV 3C protease cleavage site (C); 6His (C, cleaved yes); made in house; host or cells: Sf21 insect cells (baculovirus), secreted
T2 sequence (P19438 30-211): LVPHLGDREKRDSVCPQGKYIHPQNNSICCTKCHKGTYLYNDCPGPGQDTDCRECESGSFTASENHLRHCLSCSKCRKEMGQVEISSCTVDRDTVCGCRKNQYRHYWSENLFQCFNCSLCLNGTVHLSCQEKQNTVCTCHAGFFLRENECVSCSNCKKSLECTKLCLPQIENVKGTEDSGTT
In short: (§1)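 Insect-cell human receptor ECDs, enzymatically biotinylated, immobilized via streptavidin capture chip. Peptide binding and dissociation measured in RU in pH 7.4 HEPES buffer containing 2% DMSO; chip regenerated per analyte. Rate constants give affinity.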

human TNFR2 ECD protein = target: T3, human TNFR2 ECD protein (Homo sapiens, UniProt P20333); experiment: SPR off-target binding (selectivity) to human TNFR2 ECD
T3 construct: HRV 3C protease cleavage site (C); 6His (C, cleaved yes); made in house; host or cells: Sf21 insect cells (baculovirus), secreted
T3 sequence (P20333 23-257): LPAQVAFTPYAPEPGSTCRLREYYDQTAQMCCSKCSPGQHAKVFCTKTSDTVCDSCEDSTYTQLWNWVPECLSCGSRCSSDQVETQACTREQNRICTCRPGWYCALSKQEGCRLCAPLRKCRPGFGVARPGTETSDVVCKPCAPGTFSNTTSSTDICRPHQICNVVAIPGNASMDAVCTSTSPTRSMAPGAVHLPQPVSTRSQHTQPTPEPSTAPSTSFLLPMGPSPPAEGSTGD
In short: as §1

Structure (SMILES)	IC50 [1] [nM]	Kd [2] [nM]	Kd (human TNFR2 ECD protein) [nM]	Kd [1] [nM]
C[C@H]1C(=O)N[C@@H](CC(N)=O)C(=O)N[C@@H](Cc2ccncc2)C(=O)N[C@@H](Cc2c[nH]c3ccccc23)C(=O)N[C@@](C)(CO)C(=O)N[C@@H](Cc2ccc(C(=O)O)cc2)C(=O)N[C@@H](Cc2ccc(O)cc2)C(=O)N(C)CC(=O)N[C@@H](Cc2c[nH]c3ccccc23)C(=O)N[C@H](C(N)=O)CSCC(=O)N[C@@H](CCc2ccccc2)C(=O)N[C@@H](Cc2ccc(O)cc2)C(=O)N[C@@H](CO)C(=O)N[C@@H](Cc2c[nH]c3c(F)cccc23)C(=O)N1C [SEQ ID NO. 263] ({CH2CO}-[hPhe]YS[Trp(7-F)][NMeA]N[4Pal]W[αMeS][Phe(4-COOH)]Y[Sar]WC-NH2; thioether N-14)	2.88	1.6	> 1000	
CCCC[C@@H]1NC(=O)[C@@H]2CC[C@@H](C2)NC(=O)[C@H]([C@@H](C)c2c[nH]c3c(OC)cccc23)NC(=O)CN(C)C(=O)[C@H](Cc2ccc(C(N)=O)cc2)NC(=O)[C@H](Cc2ccc(C(N)=O)cc2)NC(=O)[C@](C)(CO)NC(=O)[C@H](Cc2c[nH]c3c(C#N)cccc23)NC(=O)[C@H](Cc2ccc(C(=O)O)cc2)NC(=O)[C@H](CC(N)=O)NC(=O)[C@H]2C[C@H](F)CN2C(=O)[C@H](Cc2c[nH]c3ccccc23)NC(=O)[C@@H]2CC[C@@H](O)CN2C(=O)[C@H](Cc2ccncc2)NC1=O [SEQ ID NO. 114] (cyclo([4Pal][Pip(5R-OH)]W[dPro(trans-4-F)]N[Phe(4-COOH)][Trp(7-CN)][αMeS][Phe(4-CONH2)][Phe(4-CONH2)][Sar][Trp(βS-Me,7-OMe)][X1][Nle]))		0.02	> 1000	0.02
CCCC[C@@H]1NC(=O)[C@@H]2CC[C@@H](C2)NC(=O)[C@H]([C@@H](C)c2c[nH]c3c(OC)cccc23)NC(=O)CN(C)C(=O)[C@H](Cc2ccc(C(=O)O)cc2)NC(=O)[C@H](Cc2ccc(S(N)(=O)=O)cc2)NC(=O)[C@](C)(CO)NC(=O)[C@H](Cc2c[nH]c3c(C#N)cccc23)NC(=O)[C@H](Cc2ccc(C(=O)O)cc2)NC(=O)[C@H](CC(N)=O)NC(=O)[C@H]2C[C@H](OCC(=O)O)CN2C(=O)[C@H](Cc2c[nH]c3ncccc23)NC(=O)[C@@H]2CC[C@@H](O)CN2C(=O)[C@H](Cc2ccncc2)NC1=O [SEQ ID NO. 4] (cyclo([4Pal][Pip(5R-OH)][Trp(7-aza)][dHyp](Carboxymethyl)N[Phe(4-COOH)][Trp(7-CN)][αMeS][Phe(4-SO2NH2)][Phe(4-COOH)][Sar][Trp(βS-Me,7-OMe)][X1][Nle]))		0.1	> 1000	0.09
CCCC[C@@H]1NC(=O)[C@H](CC)SC[C@@H](C(N)=O)NC(=O)[C@H]([C@@H](C)c2c[nH]c3c(OC)cccc23)NC(=O)CN(C)C(=O)[C@H](Cc2ccc(O)cc2)NC(=O)[C@H](Cc2ccc(C(N)=O)cc2)NC(=O)[C@](C)(CO)NC(=O)[C@H](Cc2c[nH]c3c(Cl)cccc23)NC(=O)[C@H](Cc2ccc(C(=O)O)cc2)NC(=O)[C@H](CC(N)=O)NC(=O)[C@H](CCC(=O)O)N(C)C(=O)[C@H](Cc2c[nH]c3ncccc23)NC(=O)[C@@H]2CC[C@@H](O)CN2C(=O)[C@H](Cc2ccncc2)NC1=O [SEQ ID NO. 168] ([Nle][4Pal][Pip(5R-OH)][Trp(7-aza)][NMeE]N[Phe(4-COOH)][Trp(7-Cl)][αMeS][Phe(4-CONH2)]Y[Sar][Trp(βS-Me,7-OMe)]C-NH2; linker N-14 via X7)	0.3	0.37	> 1000	
CN1CC(=O)N[C@@H](Cc2c[nH]c3ccccc23)C(=O)N[C@H](C(N)=O)CSCC(=O)N[C@@H](CCCCN)C(=O)N[C@@H](Cc2ccc(O)cc2)C(=O)N[C@@H](CO)C(=O)N[C@@H](Cc2c[nH]c3ccccc23)C(=O)N2CCC[C@@H]2C(=O)N[C@@H](CCCNC(N)=O)C(=O)N[C@@H](Cc2ccncc2)C(=O)N[C@@H](Cc2c[nH]c3ccccc23)C(=O)N[C@@](C)(CO)C(=O)N[C@@H](Cc2ccc(C(=O)O)cc2)C(=O)N[C@@H](Cc2ccc(O)cc2)C1=O [SEQ ID NO. 256] ({CH2CO}-KYSW[dP][Cit][4Pal]W[αMeS][Phe(4-COOH)]Y[Sar]WC-NH2; thioether N-14)	1.84	1.4	> 1000	
C[C@H]1C(=O)N[C@@H](CC(N)=O)C(=O)N[C@@H](Cc2ccncc2)C(=O)N[C@@H](Cc2ccc3ccccc3c2)C(=O)N[C@@](C)(CO)C(=O)N[C@@H](Cc2ccc(C(=O)O)cc2)C(=O)N[C@@H](Cc2ccc(O)cc2)C(=O)N(C)CC(=O)N[C@@H](Cc2c[nH]c3ccccc23)C(=O)N[C@H](C(N)=O)CSCC(=O)N[C@@H](CCCCN)C(=O)N[C@@H](Cc2ccncc2)C(=O)N[C@@H](CO)C(=O)N[C@@H](Cc2cccc3ccccc23)C(=O)N1C [SEQ ID NO. 227] ({CH2CO}-K[4Pal]S[1Nal][NMeA]N[4Pal][2Nal][αMeS][Phe(4-COOH)]Y[Sar]WC-NH2; thioether N-14)	4.02	2.3	> 1000	
CCCC[C@@H]1NC(=O)CSC[C@@H](C(N)=O)NC(=O)[C@H]([C@@H](C)c2c[nH]c3c(OC)cccc23)NC(=O)CN(C)C(=O)[C@H](Cc2ccc(O)cc2)NC(=O)[C@H](Cc2ccc(C(=O)O)cc2)NC(=O)[C@](C)(CO)NC(=O)[C@H](Cc2c[nH]c3c(Cl)cccc23)NC(=O)[C@H](Cc2ccncc2)NC(=O)[C@H](CC(N)=O)NC(=O)[C@H](CCC(=O)O)N(C)C(=O)[C@H](Cc2c[nH]c3ncccc23)NC(=O)[C@H](Cc2cscn2)NC(=O)[C@H](Cc2ccncc2)NC1=O [SEQ ID NO. 253] ({CH2CO}-[Nle][4Pal][Ala(4-thiazolyl)][Trp(7-aza)][NMeE]N[4Pal][Trp(7-Cl)][αMeS][Phe(4-COOH)]Y[Sar][Trp(βS-Me,7-OMe)]C-NH2; thioether N-14)	0.77	1.09	> 1000	1.02
CCCC[C@@H]1NC(=O)CSC[C@@H](C(N)=O)NC(=O)[C@H]([C@@H](C)c2c[nH]c3c(OC)cccc23)NC(=O)CN(C)C(=O)[C@H](Cc2ccc(O)cc2)NC(=O)[C@H](Cc2ccc(C(=O)O)cc2)NC(=O)[C@](C)(CO)NC(=O)[C@H](Cc2c[nH]c3c(Cl)cccc23)NC(=O)[C@H](Cc2ccncc2)NC(=O)[C@H](CC(N)=O)NC(=O)[C@H](CCC(=O)O)N(C)C(=O)[C@H](Cc2c[nH]c3ncccc23)NC(=O)[C@@H]2CNCCN2C(=O)[C@H](CCc2ccccc2)NC1=O [SEQ ID NO. 172] ({CH2CO}-[Nle][hPhe][Pip(4-aza)][Trp(7-aza)][NMeE]N[4Pal][Trp(7-Cl)][αMeS][Phe(4-COOH)]Y[Sar][Trp(βS-Me,7-OMe)]C-NH2; thioether N-14)	0.63	0.2	> 1000	0.57
CCCC[C@@H]1NC(=O)[C@@H]2CC[C@@H](C2)NC(=O)[C@H]([C@@H](C)c2c(C)[nH]c3c(OC)cccc23)NC(=O)CN(C)C(=O)[C@H](Cc2ccc(C(=O)O)cc2)NC(=O)[C@H](Cc2ccc(C(N)=O)cc2)NC(=O)[C@](C)(CO)NC(=O)[C@H](Cc2c[nH]c3c(Cl)cccc23)NC(=O)[C@H](Cc2ccc(C(=O)O)cc2)NC(=O)[C@H](CC(N)=O)NC(=O)[C@H]2C[C@H](O)CN2C(=O)[C@H](Cc2c[nH]c3ccccc23)NC(=O)[C@@H]2CC[C@@H](O)CN2C(=O)[C@H](Cc2ccncc2)NC1=O [SEQ ID NO. 106] (cyclo([4Pal][Pip(5R-OH)]W[dHyp]N[Phe(4-COOH)][Trp(7-Cl)][αMeS][Phe(4-CONH2)][Phe(4-COOH)][Sar][X21][X1][Nle]))		0.04	> 1000	0.05
CCCC[C@@H]1NC(=O)[C@@H]2CC[C@@H](C2)NC(=O)[C@H]([C@@H](C)c2c[nH]c3c(OC)cccc23)NC(=O)CN(C)C(=O)[C@H]([C@H](O)c2ccc(C(=O)O)cc2)NC(=O)[C@H]([C@@H](O)c2ccc(C(N)=O)cc2)NC(=O)[C@](C)(CO)NC(=O)[C@H](Cc2c[nH]c3c(C#N)cccc23)NC(=O)[C@H](Cc2ccncc2)NC(=O)[C@H](CC(N)=O)NC(=O)[C@H]2C[C@H](O)CN2C(=O)[C@H](Cc2c[nH]c3ccccc23)NC(=O)[C@@H]2CC[C@@H](O)CN2C(=O)[C@H](Cc2ccncc2)NC1=O [SEQ ID NO. 155] (cyclo([4Pal][Trp(7-CN)][αMeS][X28][X24][Sar][Trp(βS-Me,7-OMe)][X1][Nle][4Pal][Pip(5R-OH)]W[dHyp]N))		0.02	> 1000	0.1
